The results in this text go back to patent publication US10934253B2, “Therapeutic compounds and methods” (UNIVERSITY OF TASMANIA, priority 2017, dated 2021).

For data set [1], the system named is HepG2 cells. The experiment in a line: Acute ATP rescue assay (impaired mitochondrial function, rotenone). Type of data set: cell-based. The settings on record: for activity at 1 µM: Homo sapiens, 1 h; for ATP rescue (in words): HepG2, rotenone, comment on Table 4. Here is the method: HepG2 cells were seeded at a density of 5000 cells per well in a 96-well plate and incubated for 24 hours in DMEM with 0.3 g/l glucose, 10% FBS and Penicillin-Streptomycin-Glutamine. Cells were treated with 1 μM quinones in presence or absence of rotenone (10 μM), for 60 minutes in glucose-free DMEM ATP levels were quantified using luminescence from the ATP-dependent enzymatic oxidation of luciferin by luciferase. Cells were lysed in a volume of 40 μl (4 mM EDTA, 0.2% Triton X-100) for five minutes at room temperature (RT) on an orbital shaker at 200 rpm. […] Luminescence was quantified immediately using a multimode plate reader (Fluoroscan Ascent, Thermo Scientific). ATP levels were standardized to protein levels using a commercial BCA assay (Protein DC; BioRad) and changes were calculated as percentage relative to levels of DMSO-treated control cells. Data is expressed as % ATP compared to the untreated (no-rotenone) control.
Vitamin K, menadione and idebenone were used as comparative controls. DMSO was used as a control.

Data set [2] deals with HepG2 cells. The experiment in a line: Rescue of cell viability in the presence of a mitochondrial inhibitor (rotenone 1 μM). It is filed as cell-based. The settings on record: for viability at 10 µM: Homo sapiens. The protocol: (§1) Cytoprotection of HepG2 cells by naphthoquinones was quantified in the presence of the mitochondrial toxin, rotenone. Briefly, HepG2 cells were seeded in 96-well plates at 5000 cells/well in DMEM with 0.3 g/l glucose, 10% FBS and Penicillin-Streptomycin-Glutamine. After overnight incubation under standard conditions, cells were treated with the test compounds (10 μM) for 2 days before cells were challenged with 1 μM rotenone in the presence of 10 μM test compounds in Hank's balanced salt solution (HBSS) for 6 hours. This was followed by post-incubation for an additional 18 hours with only 10 μM test compounds in HBSS. For measurement of cell viability, cells were washed with 100 μL PBS twice and then lysed using 40 μL lysis solution (4 mM EDTA, 0.2% Triton X-100) for 5 min at room temperature (RT) on an orbital shaker at 200 rpm. Then 10 μL of the lysate was mixed with 90 μL of enzyme-substrate mixture (as described above) in a white 96 well plate and luminescence was measured immediately using a plate-reader (Fluoroscan Ascent, Thermo Scientific). The data is expressed as % viability compared to the untreated (no-rotenone) control.
The extent of protection of cellular viability against a rotenone challenge of representative compounds of Formula (I) is shown below in Table 5. Vitamin K, Menadione and Idebenone were used as comparative controls. DMSO was used as a control.

The test system of data set [3] is HepG2 cells. The experiment in a line: Cell viability in the presence of a mitochondrial inhibitor (rotenone 10 μM). The settings on record: for viability at 10 µM: Homo sapiens, read-out: CELL VIABILITY [%]. Type of data set: cell-based. Here is the method:
as §1
The cytoprotective effects of representative compounds of Formula (I) were further examined in vitro in response to rotenone toxicity at (10 μM). […] Cells were treated with the representative compounds of Formula (I) compounds (10 μM) for 2 days before cells were challenged with 10 μM rotenone.
Vitamin K, Menadione and Idebenone were used as comparative controls.

Data set [4] has as its system HepG2 cells. The data set is described as follows: Extracellular lactate levels, enzyme-linked colorimetric assay. Type of data set: cell-based. The settings on record: HepG2 culture medium; for Extracellular lactate [% control]: 25 mM glucose, supernatant after 48 h, standardized to protein; for Effect on lactate production (in words): comment on the lactate table. The protocol:
Lactate concentrations in culture medium were determined by an enzyme-linked colorimetric assay. Briefly, 150,000 HepG2 cells were seeded in normal growth media (DMEM, 10% FCS, Pen/Strep) in each well of a 6-well plate (Life Science, USA) and incubated for 24 h. The media was replaced with growth media containing (25 mM glucose,) with and without test compounds. Three untreated wells containing only cells were considered the experimental baseline control and all compounds were tested in three different wells simultaneously. Supernatants were collected after 48 h and transferred into 96-well format. After the addition of 90 μl of reaction buffer (10 mM KH2PO4 pH 7.8, 1 mg/ml BSA, 0.5 mM PMS, 2 mM EDTA, 0.6 mM DCPIP, 0.8 mM NAD+, 5 U/ml glutamate-pyruvate-transaminase, 1.5 mM glutamate, 12.5 U/ml lactate dehydrogenase) the plate was incubated at 30° C. inside a multimode plate reader (Multiscan Go, Thermo Scientific) and absorbance was measured at 600 nm over a period of 100 minutes. A standard curve was generated using media spiked with known lactate concentrations. Finally, protein levels were quantified and the lactate concentration of each well was standardized to its protein content and was then expressed as % of control.
The extent of lactate reduction in the cell culture media by the test compounds of the subject invention and the Comparative Compounds vitamin K, menadione and idebenone is shown below in Table 6.

For data set [5], the system named is LHON model induced by intravitreal rotenone in C57BL/6 mouse. The experiment in a line: Leber's hereditary optic neuropathy (LHON) mouse model, optomotor response. Type of data set: in vivo. Particulars: rotenone in left eye, 200 mg/kg orally in food. Here is the method: FIG. 5: Efficacy of representative compounds of Formula (I) in leber's hereditary optic neuropathy (LHON) mouse model. LHON induced by rotenone injection in the left eye (5 μM) in C57BL/6 mouse model (Refer to Heitz, F. D et al. (2012). PLoS One., 7(9), e45182). […] Representative compounds (UTA 37 and UTA 77) and idebenone administered at 200 mg/kg over the observation period.
LHON model was induced by intravitreal injection of rotenone into the left eye in C57BL/6 mouse model as described by Heitz et al. 2012. Representative compounds (UTA 37 and UTA 77) and idebenone administered at 200 mg/kg over the observation period. Vision loss was measured by assessing number of head turns.
C57BL/6 mice (male, 8-11 weeks of age, average body weight≈25 g) were used in accordance with the Australian code for the use of animals for scientific purposes and under the required animal ethics approval from the University of Tasmania (UTAS) Animal Ethics Committee (Approval number A0016080). Animals were given at least seven days to acclimatise to the animal facility to reduce stress induced by transportation before being used for behavioural testing. All mice were supplied orally with test compounds by mixing test compounds into individual daily food portions as described previously (Heitz, F. D. et al. (2012). PLoS One., 7(9), e45182). […]

In data set [6] the test system is HepG2 cells. The data set is described as follows: ATP rescue in the presence of a mitochondrial inhibitor (rotenone 10 μM). It is filed as cell-based. Particulars: compounds 10 uM for 2 days, then 10 μM rotenone challenge.
Experimental: The extent of ATP rescue of representative compounds of Formula (I) were further examined in vitro in response to rotenone toxicity at (10 μM). […] Cells were treated with the representative compounds of Formula (I) compounds (10 μM) for 2 days before cells were challenged with 10 μM rotenone.
The mark [7] stands for this setting: HepG2, 1 μM quinones with rotenone 10 μM, 60 minutes, glucose-free DMEM, % ATP compared to untreated (no-rotenone) control.

`COC1=C(OC)C(=O)C(CCCCCCCCCCO)=C(C)C1=O` [Idebenone, idebenone, reference compound]: the activity at 1 µM in the data set on HepG2 cells [1] (setting [7]) stood at 81%. Besides, in the data set on HepG2 cells [2] (HepG2, 10 μM test compound 2 days, 1 μM rotenone challenge 6 hours, 18 hours post-incubation, % of untreated (no-rotenone) control, read-out: Viability [%]), the viability (as a rule, a per cent measure of how many cells are alive, often set against a control) at 10 µM amounted to 66.2%. For the same compound, the viability at 10 µM in the data set with HepG2 cells [3] (48 h, HepG2, compounds 10 uM for 2 days, then 10 μM rotenone challenge) is 66.2%. Also, in the data set on HepG2 cells [4], the “Extracellular lactate [% control]” value was determined as 111.9 % control and the “Effect on lactate production (in words)” value is reported as “increase lactate concentrations”.

Turning to `CC1=CC(=O)c2ccccc2C1=O` [Menadione, reference compound], the “ATP rescue (in words)” value with HepG2 cells [1] was “no or minor effects”. In addition, the activity at 1 µM in the data set on HepG2 cells [1] (setting [7]) came to 30.6%. Besides, the viability at 10 µM with HepG2 cells [2] (HepG2) is 64%. Moreover, the viability at 10 µM with HepG2 cells [3] (HepG2, 48 h) turned out to be 64%. In the data set with HepG2 cells [4], the “Extracellular lactate [% control]” value came out at 163.3 % control and the “Effect on lactate production (in words)” value was “increase lactate concentrations”.

Take `CC1=C(CCCCCCCCCCO)C(=O)c2ccccc2C1=O` [UTA #2, 2-(10-Hydroxydecyl)-3 methyl-1,4-naphthoquinone]: the melting point (commonly the temperature, or range, at which the solid turns liquid) was 74 to 75 °C. For the same compound, the viability at 10 µM in the data set on HepG2 cells [3] (HepG2, 48 h) amounted to 68.9%.

`CC1=C(CCCC(=O)N[C@@H](Cc2ccccc2)C(=O)O)C(=O)c2ccccc2C1=O` [UTA #37, (S)-2-(4-(3-methyl-1,4-naphthoquinone-2-yl)butanamido)-3-phenylpropanoic Acid]: the viability at 10 µM was 100% in the data set with HepG2 cells [2] (HepG2) and 100% with HepG2 cells [3] (HepG2, 48 h). Moreover, the “Protection of visual acuity (head turns, optomotor response; in words)” value in data set [5] is recorded as “Statistically significant protection of visual acuity”.

The compound `CC1=C(CCCCCC(=O)O)C(=O)c2ccccc2C1=O` [UTA #70] gave an activity at 1 µM in the data set with HepG2 cells [1] (setting [7]) of 91.8%. Also, the viability at 10 µM with HepG2 cells [3] (HepG2, 48 h) was 66.8%. The “Extracellular lactate [% control]” value in the data set on HepG2 cells [4] is listed as 73.3 % control.

Turning to Vitamin K [reference compound], in the data set with HepG2 cells [1], the “ATP rescue (in words)” value is reported as “no or minor effects”. Further, the “ATP rescue [%]” value in the data set on HepG2 cells [1] (setting [7]) is given as 3.5%. The “Protection of cell viability (in words)” value in the data set with HepG2 cells [2] (HepG2, rotenone, comment on Table 5) was “no protective effect”. In addition, the “Viability [%]” value with HepG2 cells [2] (HepG2, 10 μM test compound 2 days, 1 μM rotenone challenge 6 hours, 18 hours post-incubation, % of untreated (no-rotenone) control) stood at 14.5%. Besides, the “CELL VIABILITY [%]” value with HepG2 cells [3] (HepG2, compounds 10 uM for 2 days, then 10 μM rotenone challenge) was 14.5%. For the same compound, in the data set on HepG2 cells [6], the “% ATP RESCUE” value is listed as 3.5%. Besides, in the data set with HepG2 cells [4], the “Extracellular lactate [% control]” value is 92.0 % control and the “Effect on lactate production (in words)” value is reported as “slight but non-significant effect”.
